Laboratory results as given in patent US20250152605A1, “METHOD AND DRUG FOR TREATING NEURONAL CEROID LIPOFUSCINOSIS” (priority 2021, published 2025).

Assays:
KEAP1 protein = target: T1, KEAP1 protein (Homo sapiens, UniProt Q14145); assay: Quantitative thiol reactivity analysis; type: binding; conditions: CLN3^Δex7/8 human neural stem cells, 30 μM, 2 hours, mass spectrometry
T1 construct: mass spectrometry was used to analyze the thiol reactivity of the cysteine residues on KEAP1 in the lysate; endogenous in cells; host or cells: CLN3 Δex7/8 human neural stem cells differentiated from H9 human embryonic stem cells
Method: To determine the protein covalently bound to Compound G, a Compound G-binding proteomic analysis with the following steps was performed: neural stem cells were cultured in 10 cm cell culture dishes to a cell density of 90%. 1-2 mg of protein could be obtained after the neural stem cells in a 10 cm cell culture dish are lysed; the supernatant was aspirated, fresh medium containing 30 μM Compound G or medium containing an equal volume of solvent DMSO was added, followed by incubation in a cell culture incubator at 37° C. for 2 hours; the cell medium was aspirated followed by washing once with 10 mL of dPBS, and the aspiration should be as clean as possible.
The cell culture dish was placed on ice and added with RIPA cell lysis buffer with protease inhibitors and phosphatase inhibitors (for the formulation, please refer to the flow cytometry analysis and sorting section); all cells were scraped off on ice using a cell scraper and collected into 1.5 mL EP tubes; the sample was placed on ice and ultrasonically broken with an ultrasonic power of 20% and with ultrasound 5 times for 3 seconds each time; ENE probe at a final concentration of 100 μM was added to each sample, followed by incubation for 1 hour in the dark while rotating. ENE could react with sulfhydryl groups in protein cysteine residues to produce stable thioether bonds. […]

[1] = tested on: CLN3^Δex7/8 neural stem cells; assay: Annexin V and propidium iodide apoptosis staining, flow cytometry; type: cell-based, human; conditions: treatment for 48 hours
Method: In analyzing the mean fluorescence intensity of neural stem cells and neuronal staining or single cell establishment of NRK cells, flow cytometry was used: the cell medium was aspirated off, after wash with dPBS once, the digestive enzyme corresponding to the cell type was added to digest into single cells; the supernatant was removed by centrifugation, and the cells were resuspended with 1 mL of fresh medium; the cell suspension with filtered through 40 μm filter membrane and the single cell filtrate was collected; the single cell filtrate was transferred to a flow tube and analyzed or sorted using BD FACS Aria III; in the analysis, the fluorescence intensity of 1×10^4 cells for each sample was analyzed to obtain the mean fluorescence intensity (MFI); for sorting, cells were received in 96 well plates with medium, one cell per well to establish a cell line.
Then, whether compound G causes cytotoxicity in neural stem cells was examined. Cell apoptosis was detected after compound G treatment with Annexin V and propidium iodide (PI) staining and analyzed with flow cytometry. Annexin V positive and PI negative represented early apoptotic cells, while Annexin V positive and PI positive represented late apoptotic cells.

[2] = tested on: mouse tail tip fibroblasts (TTF); assay: qRT-PCR of autophagy-related and lysosomal genes in mouse tail tip fibroblasts; type: cell-based
Method: The cells in the cell-culture dish were collected, extracted using AxyPrep Total RNA Mini Prep Kit or Qiagen AxyPrep Total RNA Mini Prep Kit, and the extracted RNA concentration is measured using Nanodrop; the extracted mRNA was reverse transcribed into cDNA by Transgen's EasyScript® One-Step gDNA Removal and cDNA Synthesis SuperMix and the primers used for reverse transcription were Oligo dT primers; the completion of reverse transcription followed by qRT-PCR reaction through PerfectStart™ Green qPCR SuperMix to detect the expression of the target gene; the qRT-PCR reaction was performed on the Bio-Rad CFX96 Real-Time PCR system; see Table 2 and Table 3 for the 20 μL qRT-PCR reaction system and reaction procedures; data analysis was performed in Prism 7 software using the 2^−ΔΔCt process with GAPDH as internal reference for relative quantification of the expression of the target gene.
Compound G was added to the mouse tail tip fibroblasts (TTF), after incubation for 6 hours, mRNA was extracted, and the transcription level of the autophagy-related genes and the lysosomal genes in the cells was detected.
First, lentivirus packaged with control shRNA or FXR shRNA-2 was used to infect the mouse TTF. After treatment with Compound G, mRNA was extracted for detection of gene transcription.

Cln3 KO mice = assay: Rotarod test (roller experiment); type: in vivo, mouse; conditions: 4th day of testing
Method: First, the roller experiment was conducted. Treatment of Compound G was continuously provided to the mice after weaned on day 21. When the wild-type mice, the Cln3 KO mice and the Compound G-treated Cln3 KO mice reached 4-5 months of age, roller training for 3 days was conducted, and test was conducted on the 4th day for the motor ability of the mice on the roller.

T1 sequence (Q14145 whole entry): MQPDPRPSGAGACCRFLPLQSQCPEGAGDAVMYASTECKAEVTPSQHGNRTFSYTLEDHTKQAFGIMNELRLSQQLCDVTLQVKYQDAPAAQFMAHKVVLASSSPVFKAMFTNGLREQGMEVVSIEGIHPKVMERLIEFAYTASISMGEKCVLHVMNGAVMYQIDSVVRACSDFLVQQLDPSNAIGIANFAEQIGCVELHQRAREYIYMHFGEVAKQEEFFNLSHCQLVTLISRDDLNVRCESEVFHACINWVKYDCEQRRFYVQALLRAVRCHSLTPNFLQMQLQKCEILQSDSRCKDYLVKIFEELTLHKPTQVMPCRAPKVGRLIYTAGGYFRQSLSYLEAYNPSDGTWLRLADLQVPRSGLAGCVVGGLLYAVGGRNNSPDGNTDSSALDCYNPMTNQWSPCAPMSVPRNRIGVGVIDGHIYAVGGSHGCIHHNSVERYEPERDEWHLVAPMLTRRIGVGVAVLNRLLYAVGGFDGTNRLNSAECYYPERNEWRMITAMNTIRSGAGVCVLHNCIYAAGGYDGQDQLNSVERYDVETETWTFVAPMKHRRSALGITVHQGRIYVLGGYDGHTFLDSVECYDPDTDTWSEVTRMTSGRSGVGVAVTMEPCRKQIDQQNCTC

C/C=C1\C(=O)C[C@H]2[C@@H]3CCC4=CC(=O)CC[C@]4(C)[C@H]3CC[C@]12C [Compound G, (Z)-guggulsterone]
thiol reactivity of the cysteine residues on KEAP1 (KEAP1 protein): reduce the thiol reactivity of cysteine residue 288 | proportions of apoptotic cells (Annexin V / PI) [1]: did not significantly change the proportions of apoptotic cells | expression of the autophagy-related genes ([2]; TTF infected with FXR shRNA-2): failed to increase | transcription level of the autophagy-related genes and the lysosomal genes ([2]; TTF, incubation for 6 hours): significantly increase | expression of the autophagy-related genes ([2]; control shRNA-infected TTF): significantly increase | falling time from the roller (Cln3 KO mice): significantly extended
